# Results published in US20240174648A1, “Small Molecule Compound” (Technoderma Medicines Pte Ltd, priority 2019, published 2024).
# Experiments:
# Format in all cases: biochemical
# JAK3 = target: T1, JAK3 (Homo sapiens, UniProt P52333); assay: JAK kinase inhibition assay (EZ Reader, peptide substrate phosphorylation) - JAK3; details: JAK3 kinase 1 nM; 8 concentration points, max 10 μM
# T1 sequence (P52333 1-1124): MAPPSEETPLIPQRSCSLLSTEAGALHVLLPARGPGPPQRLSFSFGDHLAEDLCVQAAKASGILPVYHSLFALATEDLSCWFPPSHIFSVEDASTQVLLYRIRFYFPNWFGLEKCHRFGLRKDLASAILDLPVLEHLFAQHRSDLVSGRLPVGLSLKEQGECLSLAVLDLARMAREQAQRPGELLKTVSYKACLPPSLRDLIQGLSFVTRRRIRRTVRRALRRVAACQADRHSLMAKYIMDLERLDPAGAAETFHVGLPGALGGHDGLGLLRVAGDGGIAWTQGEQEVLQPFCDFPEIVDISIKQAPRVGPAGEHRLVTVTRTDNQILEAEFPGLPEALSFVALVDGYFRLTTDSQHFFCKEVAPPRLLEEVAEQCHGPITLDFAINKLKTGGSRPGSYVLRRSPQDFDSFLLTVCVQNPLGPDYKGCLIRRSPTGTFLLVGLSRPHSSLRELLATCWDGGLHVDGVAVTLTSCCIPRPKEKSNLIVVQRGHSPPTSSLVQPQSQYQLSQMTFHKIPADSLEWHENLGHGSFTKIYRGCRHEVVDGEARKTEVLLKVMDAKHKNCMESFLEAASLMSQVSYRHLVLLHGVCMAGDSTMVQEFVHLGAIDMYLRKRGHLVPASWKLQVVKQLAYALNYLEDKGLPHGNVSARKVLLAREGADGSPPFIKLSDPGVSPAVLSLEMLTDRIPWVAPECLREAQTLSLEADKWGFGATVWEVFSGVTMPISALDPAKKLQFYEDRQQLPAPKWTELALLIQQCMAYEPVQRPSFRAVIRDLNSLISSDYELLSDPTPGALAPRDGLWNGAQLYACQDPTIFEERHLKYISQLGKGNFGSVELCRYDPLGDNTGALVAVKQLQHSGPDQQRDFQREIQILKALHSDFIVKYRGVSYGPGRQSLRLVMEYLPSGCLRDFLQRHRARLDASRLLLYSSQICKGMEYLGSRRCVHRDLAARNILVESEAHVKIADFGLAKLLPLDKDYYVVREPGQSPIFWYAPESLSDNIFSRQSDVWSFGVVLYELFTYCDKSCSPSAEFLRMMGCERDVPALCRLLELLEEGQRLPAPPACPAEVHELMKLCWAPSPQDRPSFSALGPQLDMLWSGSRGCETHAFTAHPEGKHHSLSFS
# From the text: (§1) Assay for Identifying Inhibitory Effects of Compounds on JAK Kinases
# (§2) Janus kinases (JAK), including JAK1, JAK2, JAK3 and Tyk2, transduce a cytokine-mediated signal through a JAK-STAT pathway. The kinases are 120-140 kDa in size and have 7 determined homology regions: JH1 to JH7. JH1 is an important region for enzymatic activity and has typical characteristics of tyrosine kinases. Phosphorylation of tyrosine leads to a change in the conformation of JAK protein, thereby promoting binding of substrate. The JAK-STAT system includes three main parts: receptors penetrating a cell membrane, Janus kinases binding to the receptors, and signal transducers and activators of transcription (STAT) for transmitting signals to a nucleus and DNA. When cytokines bind to receptors, JAK phosphorylates the receptors and attracts STAT proteins. The STAT proteins are also phosphorylated and combined with one another to form dimers. The dimers enter the nucleus and bind to DNA, thereby leading to gene transcription.
# (§3) EZ Reader from PerkinElmer can be used to detect the phosphorylation of polypeptide substrates catalyzed by kinases. The device is based on microfluidic techniques, and can directly detect fluorescently labeled substrates and products. The separation step is achieved by controlling the pressure and electric field strength in the microfluidic chip. In kinase assays, a product conversion ratio is usually controlled to be 20-30%. A biological test is used to identify inhibitory effects of compounds on JAKs.
# (§4) Compound powder was dissolved in DMSO, sealed and stored in a freezer under −20° C. The in-house compound Ref1 was used as a positive control for JAK1, JAK2 and Tyk2 tests, and Ref2 was used as a positive control for JAK3 tests.
# (§5) S2.8. Assay buffer: 20 mM HEPES buffer, pH 7.4, 10 mM magnesium chloride, 0.01% bovine serum albumin BSA, 0.0005% Tween-20 and 1 mM dithiothreitol solution.
# (§6) S2.9. Stop buffer: 180 mM HEPES buffer, 20 mM ethylenediaminetetraacetic acid and 0.2% coating reagent 3.
# (§7) S2.10. Separation buffer: 100 mM HEPES buffer, 10 mM ethylenediaminetetraacetic acid, 0.0005% Tween 20, 0.1% coating reagent 3 and 1% dimethyl sulfoxide.
# The compound was dissolved in dimethyl sulfoxide and diluted to 10 mM concentration, a certain volume of solution was taken and diluted to 0.6 mM concentration, 10 μL of the 0.6 mM dilution was added to a 384-well microplate, and then was diluted 3-fold with a total of 8 concentration points. […]
# Positive control (HPE1): Ref2, final concentration: 10 μM
# (§8) Negative control (ZPE): DMSO, final content: 1.6%
# (§9) Compounds: maximum final concentration: 10 μM; 3-fold dilution, 8 concentration points and 2 duplicates.
# (§10) S4.1. 250 nL of the compound was added to each well of the assay microplate by using ECHO, and centrifuged at 1000 rpm for 1 minute.
# (§11) S4.2. 5 μL of the assay buffer was added and agitated for a few seconds to fully dissolve the compound.
# (§12) S4.3. 5 μL of 3× substrate solution and 5 μL of 3× kinase solution were added and centrifuged at 800 rpm for 1 minute.
# (§13) S4.4. Final concentrations of JAK1, JAK2, JAK3 and Tyk2 kinases in the reaction system were 20 nM, 1 nM, 1 nM and 1 nM respectively.
# (§14) S4.5. Incubation at room temperature, where kinases had time differences, and different batches of kinases had time differences.
# (§15) S4.6. When 20%-30% of the reaction completed, 15 μL of stop buffer was added to stop the reaction, and centrifuged at 1000 rpm for 2 minutes.
# (§16) S4.7. The microplates were placed on EZ Reader for reading.
# (§17) S4.8. Readings on EZ Reader were calculated by using a peak height, where product conversion ratio (%)=product/(product+substrate)*100.
# (§18) 5. Data Processing: IC50 calculation
# (§19) A graphing software Xlfit was used to form a concentration curve of the test compound, and an IC50 value was calculated.
# (§20) “A” means “≥10 μM”; “B” means “≥1 μM and <10 μM”; “C” means “≥0.1 μM and <1 μM”; and “D” means “<0.1 μM”.
# JAK2 = JAK2 (Homo sapiens, UniProt O60674); assay: JAK kinase inhibition assay (EZ Reader, peptide substrate phosphorylation) - JAK2; details: JAK2 kinase 1 nM; 8 concentration points, max 10 μM
# Sequence of JAK2 (O60674 whole entry): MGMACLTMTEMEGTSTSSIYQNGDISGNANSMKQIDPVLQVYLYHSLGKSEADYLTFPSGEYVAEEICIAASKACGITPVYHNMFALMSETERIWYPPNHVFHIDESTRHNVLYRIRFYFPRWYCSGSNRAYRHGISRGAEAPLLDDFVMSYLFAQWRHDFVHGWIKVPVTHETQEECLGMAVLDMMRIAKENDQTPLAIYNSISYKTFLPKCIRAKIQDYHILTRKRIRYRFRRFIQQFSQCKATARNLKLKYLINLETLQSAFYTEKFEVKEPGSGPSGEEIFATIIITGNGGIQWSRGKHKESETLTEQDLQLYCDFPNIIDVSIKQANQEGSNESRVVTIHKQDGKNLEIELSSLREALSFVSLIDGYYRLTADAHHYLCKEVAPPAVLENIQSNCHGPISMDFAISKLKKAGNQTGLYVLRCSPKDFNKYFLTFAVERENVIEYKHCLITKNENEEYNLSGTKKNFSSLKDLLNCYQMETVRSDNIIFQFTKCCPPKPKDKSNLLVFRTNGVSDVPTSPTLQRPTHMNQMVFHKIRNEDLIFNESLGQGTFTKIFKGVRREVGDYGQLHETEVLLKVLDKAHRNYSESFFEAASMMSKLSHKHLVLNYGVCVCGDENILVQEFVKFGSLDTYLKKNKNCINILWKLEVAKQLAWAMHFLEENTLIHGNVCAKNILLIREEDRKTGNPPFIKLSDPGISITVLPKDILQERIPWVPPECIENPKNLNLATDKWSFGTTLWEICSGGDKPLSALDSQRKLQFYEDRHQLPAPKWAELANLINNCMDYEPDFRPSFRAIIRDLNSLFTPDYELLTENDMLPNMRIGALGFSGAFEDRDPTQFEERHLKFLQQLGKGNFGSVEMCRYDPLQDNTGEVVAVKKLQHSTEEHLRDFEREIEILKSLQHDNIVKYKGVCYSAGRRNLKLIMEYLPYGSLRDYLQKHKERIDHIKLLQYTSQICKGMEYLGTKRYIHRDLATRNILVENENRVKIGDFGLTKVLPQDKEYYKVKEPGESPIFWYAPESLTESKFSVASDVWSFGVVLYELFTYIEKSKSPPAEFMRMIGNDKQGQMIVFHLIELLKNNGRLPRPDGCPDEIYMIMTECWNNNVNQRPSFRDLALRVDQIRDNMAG
# From the text: as §1, §2, §3, §4, §5, §6, §7
# The compound was dissolved in dimethyl sulfoxide and diluted to 10 mM concentration, a certain volume of solution was taken and diluted to 0.6 mM concentration, 10 μL of the 0.6 mM dilution was added to a 384-well microplate, and then was diluted 3-fold with a total of 8 concentration points.
# Positive control (HPE1): Ref1, final concentration: 10 μM […]
# as §8, §9, §10, §11, §12, §13, §14, §15, §16, §17, §18, §19, §20
# Tyk2 = Tyk2 (Homo sapiens, UniProt P29597); assay: JAK kinase inhibition assay (EZ Reader, peptide substrate phosphorylation) - Tyk2; details: Tyk2 kinase 1 nM; 8 concentration points, max 10 μM
# Sequence of Tyk2 (P29597 whole entry): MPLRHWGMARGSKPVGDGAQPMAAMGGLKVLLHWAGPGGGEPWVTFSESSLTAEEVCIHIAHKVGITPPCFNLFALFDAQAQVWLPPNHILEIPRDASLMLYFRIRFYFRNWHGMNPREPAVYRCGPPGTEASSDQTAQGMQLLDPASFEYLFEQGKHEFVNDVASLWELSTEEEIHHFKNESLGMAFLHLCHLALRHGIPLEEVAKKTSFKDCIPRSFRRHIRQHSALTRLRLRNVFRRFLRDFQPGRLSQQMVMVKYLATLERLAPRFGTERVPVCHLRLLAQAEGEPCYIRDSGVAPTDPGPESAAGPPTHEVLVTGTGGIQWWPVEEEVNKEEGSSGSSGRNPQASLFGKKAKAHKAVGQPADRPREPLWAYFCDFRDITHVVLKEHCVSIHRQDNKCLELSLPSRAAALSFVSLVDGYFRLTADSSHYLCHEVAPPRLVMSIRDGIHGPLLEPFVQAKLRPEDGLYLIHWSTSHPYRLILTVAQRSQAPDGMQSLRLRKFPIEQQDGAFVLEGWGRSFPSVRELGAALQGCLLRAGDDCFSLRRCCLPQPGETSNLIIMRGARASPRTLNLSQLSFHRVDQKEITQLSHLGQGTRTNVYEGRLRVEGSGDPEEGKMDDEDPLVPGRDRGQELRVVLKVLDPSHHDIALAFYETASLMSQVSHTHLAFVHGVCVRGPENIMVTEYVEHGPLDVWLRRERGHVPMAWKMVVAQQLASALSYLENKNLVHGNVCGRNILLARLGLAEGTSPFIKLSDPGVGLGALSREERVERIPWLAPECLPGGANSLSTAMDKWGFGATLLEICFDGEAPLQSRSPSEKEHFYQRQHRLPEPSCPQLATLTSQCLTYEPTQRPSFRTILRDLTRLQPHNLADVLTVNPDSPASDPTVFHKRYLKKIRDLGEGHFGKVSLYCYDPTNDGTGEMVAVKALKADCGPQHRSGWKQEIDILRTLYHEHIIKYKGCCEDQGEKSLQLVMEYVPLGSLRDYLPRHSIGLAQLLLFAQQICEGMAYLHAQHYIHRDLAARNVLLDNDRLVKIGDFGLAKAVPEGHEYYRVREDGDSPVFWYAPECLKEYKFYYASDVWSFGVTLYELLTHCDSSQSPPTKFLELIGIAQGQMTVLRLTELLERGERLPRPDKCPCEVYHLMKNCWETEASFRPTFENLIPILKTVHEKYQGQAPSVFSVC
# How it was run: (§21)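 Microfluidic mobility-shift detection of fluorescent peptide substrate phosphorylation, with JAK1 at 20 nM and JAK2, JAK3 and Tyk2 each at 1 nM final, in 20 mM HEPES pH 7.4, 10 mM MgCl2, 1 mM DTT. Reactions run at room temperature to 20–30% conversion, then EDTA-stopped. Compounds tested at 8 three-fold dilutions from 10 μM top final; IC50 from conversion curves.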
# JAK1 = JAK1 (Homo sapiens, UniProt P23458); assay: JAK kinase inhibition assay (EZ Reader, peptide substrate phosphorylation) - JAK1; details: JAK1 kinase 20 nM; 8 concentration points, max 10 μM
# Sequence of JAK1 (P23458 whole entry): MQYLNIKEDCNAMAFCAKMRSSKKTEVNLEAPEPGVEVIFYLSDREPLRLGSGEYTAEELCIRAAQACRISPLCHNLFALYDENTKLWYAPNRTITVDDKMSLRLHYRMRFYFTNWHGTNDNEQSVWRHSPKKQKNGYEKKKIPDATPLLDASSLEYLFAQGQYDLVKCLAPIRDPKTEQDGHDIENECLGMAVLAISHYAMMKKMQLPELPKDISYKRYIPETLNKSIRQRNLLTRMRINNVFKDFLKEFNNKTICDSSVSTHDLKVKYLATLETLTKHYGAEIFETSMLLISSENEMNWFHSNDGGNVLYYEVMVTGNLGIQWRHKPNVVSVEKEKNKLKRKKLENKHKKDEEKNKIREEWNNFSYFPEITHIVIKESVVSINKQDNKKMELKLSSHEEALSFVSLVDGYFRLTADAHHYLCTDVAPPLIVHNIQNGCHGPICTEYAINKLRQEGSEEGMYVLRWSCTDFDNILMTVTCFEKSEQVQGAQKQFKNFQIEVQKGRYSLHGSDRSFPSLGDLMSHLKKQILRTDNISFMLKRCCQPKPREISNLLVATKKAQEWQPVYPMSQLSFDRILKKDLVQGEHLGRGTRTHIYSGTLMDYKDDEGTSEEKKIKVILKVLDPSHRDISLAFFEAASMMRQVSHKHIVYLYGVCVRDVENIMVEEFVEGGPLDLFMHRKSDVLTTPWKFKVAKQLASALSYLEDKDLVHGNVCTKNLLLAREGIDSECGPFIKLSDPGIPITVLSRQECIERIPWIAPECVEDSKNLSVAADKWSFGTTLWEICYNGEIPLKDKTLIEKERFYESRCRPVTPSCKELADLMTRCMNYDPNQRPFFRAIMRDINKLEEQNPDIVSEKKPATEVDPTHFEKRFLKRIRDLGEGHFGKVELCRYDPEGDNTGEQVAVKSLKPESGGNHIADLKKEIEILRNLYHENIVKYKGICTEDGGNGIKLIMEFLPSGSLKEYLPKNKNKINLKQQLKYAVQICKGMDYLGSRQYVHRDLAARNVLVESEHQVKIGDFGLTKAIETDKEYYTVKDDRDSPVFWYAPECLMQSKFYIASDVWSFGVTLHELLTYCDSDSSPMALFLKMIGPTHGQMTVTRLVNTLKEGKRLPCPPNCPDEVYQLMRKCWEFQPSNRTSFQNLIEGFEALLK
# How it was run: as §21
IC50 (JAK3),IC50 (JAK2),IC50 (Tyk2),IC50 (JAK1),Structure (SMILES)
≥ 10 µM,1 to 10 µM,1 to 10 µM,1 to 10 µM,Cn1cc(Nc2nccc(-c3ccc(C(=O)N4CCS(=O)(=O)CC4)cc3)n2)cn1 [TDM-180749]
1 to 10 µM,0.1 to 1 µM,0.1 to 1 µM,0.1 to 1 µM,"CCCCS(=O)(=O)Nc1ccc(-c2ccnc(Nc3cnn(C)c3)n2)cc1 [TDM-180832, N-(4-(2-((1-methyl-1H-pyrazol-4-yl)amino)pyrimidin-4-yl)phenyl)butane-1-sulfonamide]"
0.1 to 1 µM,< 0.1 µM,< 0.1 µM,< 0.1 µM,"Cn1cc(Nc2nccc(-c3ccc(NC(=O)C4CC4(F)F)nc3)n2)cn1 (stereo not drawn) [TDM-180822, 2,2-difluoro-N-(5-(2-((1-methyl-1H-pyrazol-4-yl)amino)pyrimidin-4-yl)pyridin-2-yl)cyclopropane-1-carboxamide]"

# The remaining lines, values behind:
Structure (SMILES),IC50 (JAK3),IC50 (JAK2),IC50 (Tyk2),IC50 (JAK1)
"Cn1cc(Nc2nccc(-c3ccc(C(=O)NCC#N)nc3)n2)cn1 [TDM-180762, N-(cyanomethyl)-5-(2-((1-methyl-1H-pyrazol-4-yl)amino)pyrimidin-4-yl)pyridinecarboxamide]",1 to 10 µM,0.1 to 1 µM,0.1 to 1 µM,0.1 to 1 µM
"Cn1cc(Nc2nccc(-c3ccc(-n4nccc4C4CC4)cc3)n2)cn1 [TDM-180763, 4-(4-(5-cyclopropyl-1H-pyrazol-1-yl)phenyl)-N-(1-methyl-1H-pyrazol-4-yl)pyrimidin-2-amine]",≥ 10 µM,1 to 10 µM,1 to 10 µM,10 µM
"Cn1cc(Nc2nccc(-c3ccc(CNCC#N)cc3)n2)cn1 [TDM-180761, 2-((4-(2-((1-methyl-1H-pyrazol-4-yl)amino)pyrimidin-4-yl)benzyl)amino)acetonitrile]",≥ 10 µM,1 to 10 µM,0.1 to 1 µM,0.1 to 1 µM
